For series [1] the following is noted: from C=CCCCCN(C)C(=O)C1CC(Oc2cc(-c3ccccc3)nc(-c3ccccc3)n2)CC1C(=O)NC1(C(=O)OCC)CC1C=C; rcm bond; 14-membered ring; Hoveyda-Grubbs II; DCE; 1.66 mM; 16.0 h.
In series [2] the test system is HCV replicons (wild type NS3-NS5B regions of HCV type 1b) in Huh-7 luc/neo cells. The experiment in a line: Replicon assay (Huh-Luc cells, luciferase readout). Type of series: cell-based. Conditions: Hepatitis C virus, Huh-7, 72 h, incubation of three days, luciferase activity. The source says:
The compounds of formula (I) were examined for activity in the inhibition of HCV RNA replication in a cellular assay. […] The cellular assay was based on a bicistronic expression construct, as described by Lohmann et al. (1999) Science vol. 285 pp. 110-113 with modifications described by Krieger et al. (2001) Journal of Virology 75: 4614-4624, in a multi-target screening strategy. In essence, the method was as follows.
The assay utilized the stably transfected cell line Huh-7 luc/neo (hereafter referred to as Huh-Luc). This cell line harbors an RNA encoding a bicistronic expression construct comprising the wild type NS3-NS5B regions of HCV type 1b translated from an Internal Ribosome Entry Site (IRES) from encephalomyocarditis virus (EMCV), preceded by a reporter portion (FfL-luciferase), and a selectable marker portion (neo^R, neomycine phosphotransferase). The construct is bordered by 5′ and 3′ NTRs (non-translated regions) from HCV type 1b. Continued culture of the replicon cells in the presence of G418 (neo^R) is dependent on the replication of the HCV RNA. The stably transfected replicon cells that express HCV RNA, which replicates autonomously and to high levels, encoding inter alia luciferase, are used for screening the antiviral compounds.
The replicon cells were plated in 384 well plates in the presence of the test and control compounds which were added in various concentrations. Following an incubation of three days, HCV replication was measured by assaying luciferase activity (using standard luciferase assay substrates and reagents and a Perkin Elmer ViewLux™ ultraHTS microplate imager). Replicon cells in the control cultures have high luciferase expression in the absence of any inhibitor. The inhibitory activity of the compound on luciferase activity was monitored on the Huh-Luc cells, enabling a dose-response curve for each test compound. EC50 values were then calculated, which value represents the amount of the compound required to decrease by 50% the level of detected luciferase activity, or more specifically, the ability of the genetically linked HCV replicon RNA to replicate.

In series [3] the target is HCV NS3/4A protease complexes (full-length hepatitis C NS3 protease enzyme with NS4A cofactor) (Hepatitis C virus genotype 1a, UniProt P27958). The experiment in a line: Inhibition assay (enzymatic assay, depsipeptide substrate hydrolysis). Type of series: biochemical. Conditions: enzyme 1 nM, 25 μM NS4A cofactor, 0.5 μM substrate, 30° C., competitive inhibition model. The method, then: The aim of this in vitro assay is to measure the inhibition of HCV NS3/4A protease complexes by the compounds of the present invention. This assay provides an indication of how effective compounds of the present invention would be in inhibiting HCV NS3/4A proteolytic activity.
The inhibition of full-length hepatitis C NS3 protease enzyme was measured essentially as described in Poliakov, 2002 Prot Expression & Purification 25 363 371. Briefly, the hydrolysis of a depsipeptide substrate, Ac-DED(Edans)EEAbuψ[COO]ASK(Dabcyl)-NH2 (AnaSpec, San José, USA), was measured spectrofluorometrically in the presence of a peptide cofactor, KKGSVVIVGRIVLSGK (Åke Engström, Department of Medical Biochemistry and Microbiology, Uppsala University, Sweden). [Landro, 1997 #Biochem 36 9340-9348]. The enzyme (1 nM) was incubated in 50 mM HEPES, pH 7.5, 10 mM DTT, 40% glycerol, 0.1% n-octyl-D-glucoside, with 25 μM NS4A cofactor and inhibitor at 30° C. for 10 min, whereupon the reaction was initiated by addition of 0.5 μM substrate. Inhibitors were dissolved in DMSO, sonicated for 30 sec. and vortexed. The solutions were stored at −20° C. between measurements.
The final concentration of DMSO in the assay sample was adjusted to 3.3%. The rate of hydrolysis was corrected for inner filter effects according to published procedures.
[Liu, 1999 Analytical Biochemistry 267 331-335]. Ki values were estimated by non-linear regression analysis (GraFit, Erithacus Software, Staines, MX, UK), using a model for competitive inhibition and a fixed value for Km (0.15 μM). A minimum of two replicates was performed for all measurements.

A value given as a limit tells only on which side of the number the result lay.

As usually defined, the EC50 is the midpoint of the concentration-response curve. A low value points to higher potency in that assay. What is called Ki is a measure of affinity in units of concentration, obtained from inhibition or displacement.

Chain of HCV NS3/4A protease complexes (full-length hepatitis C NS3 protease enzyme with NS4A cofactor) (P27958 1027-1657, other chains not shown): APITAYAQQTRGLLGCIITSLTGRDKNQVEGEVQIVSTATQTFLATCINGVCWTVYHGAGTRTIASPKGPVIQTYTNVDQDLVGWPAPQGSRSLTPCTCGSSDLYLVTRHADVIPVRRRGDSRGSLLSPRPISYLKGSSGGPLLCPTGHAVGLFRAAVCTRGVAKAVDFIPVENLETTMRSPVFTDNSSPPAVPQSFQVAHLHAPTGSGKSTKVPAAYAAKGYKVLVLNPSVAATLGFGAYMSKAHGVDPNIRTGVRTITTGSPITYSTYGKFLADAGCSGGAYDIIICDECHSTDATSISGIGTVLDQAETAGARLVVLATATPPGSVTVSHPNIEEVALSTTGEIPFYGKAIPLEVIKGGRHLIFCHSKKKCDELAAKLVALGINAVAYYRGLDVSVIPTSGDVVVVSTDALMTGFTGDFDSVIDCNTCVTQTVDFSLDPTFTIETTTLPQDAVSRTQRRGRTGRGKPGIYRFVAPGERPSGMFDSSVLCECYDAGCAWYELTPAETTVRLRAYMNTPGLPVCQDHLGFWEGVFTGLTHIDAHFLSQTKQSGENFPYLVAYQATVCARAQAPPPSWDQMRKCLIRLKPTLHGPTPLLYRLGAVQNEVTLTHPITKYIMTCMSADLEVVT

The molecule `CCOC(=O)C12CC1C=CCCCCN(C)C(=O)C1CC(Oc3cc(-c4ccccc4)nc(-c4ccccc4)n3)CC1C(=O)N2` (stereo not shown) had a ring closure, isolated yield in series [1] of 76%.

With `COc1nc(OC2CC3C(=O)NC4(C(=O)NS(=O)(=O)C5CC5)CC4C=CCCCCN(C)C(=O)N3C2)cc(-c2ccccc2)n1` (stereo not shown) [Example 1, Cyclopropanesulfonic acid [17-(2-methoxy-6-phenyl-pyrimidin-4-yloxy)-13-methyl-2,14-dioxo-3,13,15-triaza-tricyclo[13.3.0.0*4,6*]octadec-7-ene-4-carbonyl]-amide], in series [2], the EC50 is 1000 to 10000 nM. For the same molecule, the Ki in series [3] is 0.1 to 4.9 nM. `COc1nc(OC2CC3C(=O)NC4(C(=O)NS(=O)(=O)C5CC5)CC4C=CCCCCCNC(=O)N3C2)cc(-c2ccccc2)n1` (stereo not shown) [Example 2, Cyclopropanesulfonic acid [18-(2-methoxy-6-phenylpyrimidin-4-yloxy)-2,15-dioxo-3,14,16-triaza-tricyclo[14.3.0.0*4,6*]nonadec-7-ene-4-carbonyl]-amide] showed an EC50 in series [2] of 1000 to 10000 nM. Also, in series [3], the Ki lay in the range of 0.1 to 4.9 nM. On to `COc1nc(OC2CC3C(=O)NC4(C(=O)NS(=O)(=O)C5CC5)CC4C=CCCCCN(C)C(=O)C3C2)cc(C(C)(C)C)n1` (stereo not shown) [Example 3, Cyclopropanesulfonic acid [17-(6-tert-butyl-2-methoxypyrimidin-4-yloxy)-13-methyl-2,14-dioxo-3,13-diaza-tricyclo[13.3.0.0*4,6*]octadec-7-ene-4-carbonyl]amide], for which, in series [2], the EC50 was 1000 to 10000 nM. The molecule also had a Ki in series [3] of 5 to 99.9 nM. As for `COc1nc(O[C@@H]2C[C@H]3C(=O)N[C@]4(C(=O)NS(=O)(=O)C5(C)CC5)C[C@H]4/C=C\CCCCCNC(=O)N3C2)cc(-c2ccccc2)n1` [Example 4, 1-Methyl-cyclopropanesulfonic acid [18-(2-methoxy-6-phenylpyrimidin-4-yloxy)-2,15-dioxo-3,14,16-triaza-tricyclo[14.3.0.0*4,6*]nonadec-7-ene-4-carbonyl]-amide], the EC50 in series [2] fell in the range of 200 to 990 nM. Further, the Ki in series [3] lay within 0.1 to 4.9 nM. For the molecule `COc1nc(O[C@@H]2C[C@H]3C(=O)N[C@]4(C(=O)NS(=O)(=O)C5(C)CC5)C[C@H]4/C=C\CCCCN(C)C(=O)[C@@H]3C2)cc(C(C)(C)C)n1` [Example 5, 1-Methyl-cyclopropanesulfonic acid [17-(6-tert-butyl-2-methoxy-pyrimidin-4-yloxy)-13-methyl-2,14-dioxo-3,13-diaza-tricyclo[13.3.0.0*4,6*]octadec-7-ene-4-carbonyl]-amide], the EC50 in series [2] is greater than 10000 nM. Moreover, the Ki in series [3] was 100 to 1000 nM.

Consider `COc1cc(OC2CC3C(=O)NC4(C(=O)NS(=O)(=O)C5CC5)CC4C=CCCCCCNC(=O)N3C2)nc(-c2ccccc2)n1` (stereo not shown) [Example 6, Cyclopropanesulfonic acid [18-(6-methoxy-2-phenylpyrimidin-4-yloxy)-2,15-dioxo-3,14,16-triaza-tricyclo[14.3.0.0*4,6*]nonadec-7-ene-4-carbonyl]-amide], for which, in series [2], the EC50 lay in the range of 0.5 to 199 nM. In addition, the Ki in series [3] lay in the range of 0.1 to 4.9 nM. Consider `COc1cc(OC2CC3C(=O)NC4(C(=O)NS(=O)(=O)C5(C)CC5)CC4C=CCCCCN(C)C(=O)C3C2)nc(-c2ccccc2)n1` (stereo not shown) [Example 7, 1-Methyl-cyclopropanesulfonic acid [17-(6-methoxy-2-phenylpyrimidin-4-yloxy)-13-methyl-2,14-dioxo-3,13-diaza-tricyclo[13.3.0.0*4,6*]octadec-7-ene-4-carbonyl]-amide], for which the EC50 in series [2] was in the range of 0.5 to 199 nM. In series [3], this molecule showed a Ki of 0.1 to 4.9 nM. Turning to `COc1cc(O[C@@H]2C[C@H]3C(=O)N[C@]4(C(=O)NS(=O)(=O)c5cccs5)C[C@H]4/C=C\CCCCN(C)C(=O)[C@@H]3C2)nc(-c2ccccc2)n1` [Example 9, Thiophene-2-sulfonic acid [17-(6-methoxy-2-phenylpyrimidin-4-yloxy)-13-methyl-2,14-dioxo-3,13-diaza-tricyclo[13.3.0.0*4,6*]octadec-7-ene-4-carbonyl]-amide], in series [2], the EC50 lay in the range of 1000 to 10000 nM. As to `CN1CCCC/C=C\[C@@H]2C[C@@]2(C(=O)NS(=O)(=O)C2CC2)NC(=O)[C@@H]2C[C@@H](Oc3ccnc(N4CCOCC4)n3)C[C@H]2C1=O` [Example 11, Cyclopropanesulfonic acid [13-methyl-17-(2-morpholin-4-yl-pyrimidin-4-yloxy)-2,14-dioxo-3,13-diaza-tricyclo[13.3.0.0*4,6*]octadec-7-ene-4-carbonyl]-amide], the EC50 in series [2] was greater than 10000 nM. This molecule came in with a Ki in series [3] of 5 to 99.9 nM. `CC(C)Nc1nccc(O[C@@H]2C[C@H]3C(=O)N[C@]4(C(=O)NS(=O)(=O)C5CC5)C[C@H]4/C=C\CCCCN(C)C(=O)[C@@H]3C2)n1` [Example 12, Cyclopropanesulfonic acid [17-(2-isopropylaminopyrimidin-4-yloxy)-13-methyl-2,14-dioxo-3,13-diaza-tricyclo[13.3.0.0*4,6*]octadec-7-ene-4-carbonyl]-amide]: the EC50 in series [2] was greater than 10000 nM. The molecule also gave a Ki in series [3] of 5 to 99.9 nM. Taken in the same sequence, the figures for `COc1nc(O[C@@H]2C[C@H]3C(=O)N[C@]4(C(=O)NS(=O)(=O)C5(C)CC5)C[C@H]4/C=C\CCCCN(C)C(=O)[C@@H]3C2)cc(-c2ccccc2)n1` [Example 14, 1-Methyl-cyclopropanesulfonic acid [17-(2-methoxy-6-phenyl-pyrimidin-4-yloxy)-13-methyl-2,14-dioxo-3,13-diaza-tricyclo[13.3.0.0*4,6*]octadec-7-ene-4-carbonyl]-amide] were 200 to 990 nM and 5 to 99.9 nM. Taken in the same sequence, the figures for `COc1ccc(-c2cc(OC3CC4C(=O)NC5(C(=O)NS(=O)(=O)C6CC6)CC5C=CCCCCN(C)C(=O)C4C3)nc(OC)n2)cc1` (stereo not shown) [Example 16, Cyclopropanesulfonic acid {17-[2-methoxy-6-(4-methoxy-phenyl)-pyrimidin-4-yloxy]-13-methyl-2,14-dioxo-3,13-diaza-tricyclo[13.3.0.0*4,6*]octadec-7-ene-4-carbonyl}-amide] were 200 to 990 nM and 0.1 to 4.9 nM.

`CN1CCCCC=CC2CC2(C(=O)NS(=O)(=O)C2CC2)NC(=O)C2CC(Oc3cc(-c4ccccc4)nc(-c4ccccc4)n3)CC2C1=O` (stereo not shown) [Example 17, Cyclopropanesulfonic acid [17-(2,6-diphenyl-pyrimidin-4-yloxy)-13-methyl-2,14-dioxo-3,13-diaza-tricyclo[13.3.0.0*4,6*]octadec-7-ene-4-carbonyl]-amide]: the EC50 in series [2] lay in the range of 200 to 990 nM. Moreover, the Ki in series [3] was in the range of 0.1 to 4.9 nM. For `COc1cccc(-c2cc(O[C@@H]3C[C@H]4C(=O)N[C@]5(C(=O)NS(=O)(=O)C6CC6)C[C@H]5/C=C\CCCCN(C)C(=O)[C@@H]4C3)nc(OC)n2)c1` [Example 24, Cyclopropanesulfonic acid {17-[2-methoxy-6-(3-methoxy-phenyl)-pyrimidin-4-yloxy]-13-methyl-2,14-dioxo-3,13-diaza-tricyclo[13.3.0.0*4,6*]octadec-7-ene-4-carbonyl}-amide], the EC50 in series [2] lay within 0.5 to 199 nM. Take `COc1cccc(-c2cc(O[C@@H]3C[C@H]4C(=O)N[C@]5(C(=O)NS(=O)(=O)C6(C)CC6)C[C@H]5/C=C\CCCCN(C)C(=O)[C@@H]4C3)nc(OC)n2)c1` [Example 25, 1-Methyl-cyclopropanesulfonic acid {17-[2-methoxy-6-(3-methoxy-phenyl)-pyrimidin-4-yloxy]-13-methyl-2,14-dioxo-3,13-diaza-tricyclo[13.3.0.0*4,6*]octadec-7-ene-4-carbonyl}-amide]: the EC50 in series [2] lay in the range of 0.5 to 199 nM.
